Measurements taken from patent US20180135134A1, “TARGETED SELECTION OF PATIENTS FOR TREATMENT WITH CORTISTATIN DERIVATIVES” (President and Fellows of Harvard College, priority 2015, published 2018).

Columns and labels:
SK.BR-3 = assay: Soft agar growth assay (Alamar Blue); conditions: Breast cancer, HER2 overexpression, 100 nM cortistatin A
Protocol: (§2) For the 62 cell lines 96 well suspension cell culture plates were prepared. 100 μL of the soft agar bottom layer (0.6% final concentration in complete medium) was poured and left to solidify. 50 μL of the soft agar top layer (0.4% final concentration) containing the corresponding cells and cell number were then added on top, solidified and incubated at 37° C., 10% CO2. After the soft agar had solidified, the test items were added at indicated final concentrations into the inner wells of the plate. Subsequently, the assay was incubated in cell culture incubators for 8 to 14 days. Finally, the assay was developed using Alamar Blue and upon 1-5 h of incubation at 37° C. fluorescence intensity was determined (excitation: 560 nm; emission: 590 nm). As low control, cells were treated with 1E-05M Staurosporine (6fold values). As high control, cells were treated with 0.1% DMSO (solvent control, 6 fold values).
(§3) Raw data were converted into percent soft agar growth relative to high controls (solvent 0.1% DMSO) and low controls (1E-05M Staurosporine), which were set to 100% and 0%, respectively.

SK-N-F1 = assay: Soft agar growth assay (Alamar Blue); conditions: Neuroblastoma, 100 nM cortistatin A
Protocol: as §2, §3

UKE-1 [1] = assay: Cellular proliferation assay (CellTiter-Glo); conditions: Homo sapiens, UKE1
Protocol: (§4) All suspension cells were plated (96-well) in triplicate at 5,000-30,000 cells per well for testing (n=3). Viable cell number was estimated after 3, 7 and 10 days by counting viable cells from one vehicle well, generating a cell dilution series, transferring 20 ml per well in duplicate to a 384-well plate, and performing a linear regression to CellTiter-Glo (Promega) response (SPECTRAmax M3, Molecular Devices). Cells from all wells were also fourfold diluted in media and transferred in duplicate for CellTiter-Glo measurement. On days 3 and 7, an equal volume for all wells was split-back with fresh media and compound, such that the resulting cell density for the vehicle well matched the initial seeding density. For days 7 and 10, estimated cell number represents the split-adjusted theoretical cell number. […] For growth assays with inhibitors, n=3 for each concentration with two independent experiments.

CDK8/19 = biological target: T1, CDK8/19 (Homo sapiens, UniProt P49336); assay: Recombinant kinome-wide selectivity profiling (wildtype-profiler, ProQinase), 294 recombinant kinases; assay type: biochemical; conditions: 600 nM cortistatin A; FIG. 7A
T1 construct: purchased ProQinase GmbH
Description: Recombinant kinome-wide selectivity profiling.

MCF-7 = assay: Soft agar growth assay (Alamar Blue); conditions: Breast cancer, ER-alpha positive, 100 nM cortistatin A
Protocol: as §2, §3

UKE-1 [2] = assay: Synergy assay with ruxolitinib (Chou-Talalay), UKE-1; assay type: cell-based, human; conditions: combination of cortistatin A with JAK1/2 inhibitor ruxolitinib, FIG. 5
Protocol: (§1) SET-2 and UKE-1 cells were co-treated with constant ratios of ruxolitinib to CA, 1 to 1 or 10 to 1, in a 96-well growth assay format with a range of 2-fold dose dilutions of compounds. SET-2 and UKE-1 cells were also treated with ruxolitinib alone or CA alone in a 2-fold dilution series. The Chou-Talalay combination index values at 50% growth inhibition (Fa=0.5) were determined using CalcuSyn software (see Chou, T. C. Cancer Res. 2010 Jan. 15; 70(2):440-6) (FIG. 5).

T47D = assay: Soft agar growth assay (Alamar Blue); conditions: Breast cancer, ER-alpha positive, 100 nM cortistatin A
Protocol: as §2, §3

MV4;11 = assay: Cellular proliferation assay (CellTiter-Glo); conditions: Homo sapiens
Protocol: as §4

HL-60 = assay: Cellular proliferation assay (CellTiter-Glo); conditions: Homo sapiens
Protocol: as §4

HCC827 = assay: Soft agar growth assay (Alamar Blue); conditions: Non small cell lung carcinoma, EGFR mutation, 100 nM cortistatin A
Protocol: as §2, §3

MKN-45 = assay: Soft agar growth assay (Alamar Blue); conditions: Gastric cancer, MET amplification, 100 nM cortistatin A
Protocol: as §2, §3

SET-2 [3] = assay: Synergy assay with ruxolitinib (Chou-Talalay), SET-2; assay type: cell-based, human; conditions: combination of cortistatin A with JAK1/2 inhibitor ruxolitinib, FIG. 5
Protocol: as §1

[4] = test system: RUNX1 target genes including CEBPA, IRF8 and NFE2; assay: Gene expression in CA-sensitive cell lines SET-2, MOLM-14 and MV4;11; assay type: cell-based, human; conditions: SET-2, MOLM-14 and MV4;11 cell lines
Protocol: Leukemia cells were plated (12-well) in triplicate at 500,000-800,000 cells per ml and incubated in the presence of vehicle (0.1% DMSO) or CA (25 nM 3 h for K562, MOLM-14 and MV4;11; 10 nM 24 h for MOLM-14; 25 nM 4 h for SET-2, n=3 for each cell line). Cells were then washed twice with cold PBS, and snap frozen. RNA was isolated (RNeasy Plus Microkit, Qiagen or TRIzol, Life Technologies), processed, and, for K562, MOLM-14 and MV4;11, hybridized to the Human U133 Plus 2.0 microarray (Affymetrix). Microarrays were processed with Bioconductor packages affyQCReport for quality control and affy for background correction, summarization, and normalization using rma. […] SET-2 and HCT 116 gene expression was measured by RNA-seq. […] Reads were aligned in two passes, first with rnaStar (v.2.3.0e) then with BWA (v.0.7.5a) for remaining unmapped reads, both using default parameters. Mapped reads were merged and counted using HTSeq (v.0.5.3p3) with -s yes -m intersection-strict. […] Samples were run in a single lane on an Illumina HiSEQ 2000 sequencer with a single read flow cell using 1×50-bp reads and a 6-cycle index read. Reads were mapped to the hgl9 reference genome using Tophat2 v.2.0.6 with custom settings including the setting of—library-type fr—firstrand to appropriately account for the stranded nature of the protocol. […]

CDK19 W105M = CDK19 W105M (Homo sapiens, UniProt Q9BWU1, W105M); conditions: expression of CDK19 W105M; FIG. 9
Protocol: 5′-Flag-tagged CDK8 and CDK19 were cloned from pBabe.puro.CDK8.flag (Addgene 19758) and F-CDK8L (Addgene 24762) into pLVX-EF1alpha-IRES-mCherry and pLVX-EF1alpha-IRES-ZsGreen (Clontech) and transformed into E. coli (One Shot Stbl3, Invitrogen). Point mutations were introduced by whole-plasmid PCR (QuikChange II XL Site-Directed Mutagenesis Kit, Agilent). pLVX lentiviral vectors were co-transfected with psPASx and pMD2.G (Addgene) in 293T cells. After 48 h, viral supernatants were collected and passed through a 0.45 m filter (Millipore). For transductions, 24-well plates were coated with 500 μl of 20 μg ml RetroNectin (Clontech) at 4° C. overnight, blocked with 2% BSA for 30 min, washed with PBS, and 300-500 μl of viral supernatant was added. The plates were centrifuged (2,000 g, 1.5 h) and then set in an incubator. After 2 h, viral supernatant was removed and 500 μl per well of 200,000 cells per ml was added. After 1-3 days, the cells were expanded and isolated by FACS.

SET-2 [5] = assay: Cellular proliferation assay (CellTiter-Glo); conditions: for GI50: Homo sapiens
Protocol: as §4

CDK19 W105M, sequence (Q9BWU1 whole entry W105M): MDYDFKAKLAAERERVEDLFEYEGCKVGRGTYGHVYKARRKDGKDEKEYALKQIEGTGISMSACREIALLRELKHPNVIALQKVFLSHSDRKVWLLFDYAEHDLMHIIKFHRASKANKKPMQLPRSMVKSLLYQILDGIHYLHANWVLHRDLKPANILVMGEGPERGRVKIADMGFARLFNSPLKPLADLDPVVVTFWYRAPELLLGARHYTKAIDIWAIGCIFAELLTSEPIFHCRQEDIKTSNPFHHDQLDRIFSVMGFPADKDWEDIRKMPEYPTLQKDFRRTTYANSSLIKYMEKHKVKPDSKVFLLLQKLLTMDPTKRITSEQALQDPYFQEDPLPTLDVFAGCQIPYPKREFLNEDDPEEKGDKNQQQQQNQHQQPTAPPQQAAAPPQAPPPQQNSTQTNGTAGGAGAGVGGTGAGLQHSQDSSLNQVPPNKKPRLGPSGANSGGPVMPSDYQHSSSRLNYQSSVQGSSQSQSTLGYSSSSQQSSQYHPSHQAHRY
CDK19 W105M, sequence (P24863 whole entry partner): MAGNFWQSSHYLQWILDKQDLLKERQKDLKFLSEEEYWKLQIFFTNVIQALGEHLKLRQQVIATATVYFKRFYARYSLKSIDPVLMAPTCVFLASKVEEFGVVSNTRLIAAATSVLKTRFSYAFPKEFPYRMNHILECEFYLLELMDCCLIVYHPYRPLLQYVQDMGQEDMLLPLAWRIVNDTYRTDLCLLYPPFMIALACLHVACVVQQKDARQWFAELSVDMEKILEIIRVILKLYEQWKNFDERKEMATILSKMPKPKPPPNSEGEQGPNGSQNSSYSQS
T1 sequence (P49336 whole entry): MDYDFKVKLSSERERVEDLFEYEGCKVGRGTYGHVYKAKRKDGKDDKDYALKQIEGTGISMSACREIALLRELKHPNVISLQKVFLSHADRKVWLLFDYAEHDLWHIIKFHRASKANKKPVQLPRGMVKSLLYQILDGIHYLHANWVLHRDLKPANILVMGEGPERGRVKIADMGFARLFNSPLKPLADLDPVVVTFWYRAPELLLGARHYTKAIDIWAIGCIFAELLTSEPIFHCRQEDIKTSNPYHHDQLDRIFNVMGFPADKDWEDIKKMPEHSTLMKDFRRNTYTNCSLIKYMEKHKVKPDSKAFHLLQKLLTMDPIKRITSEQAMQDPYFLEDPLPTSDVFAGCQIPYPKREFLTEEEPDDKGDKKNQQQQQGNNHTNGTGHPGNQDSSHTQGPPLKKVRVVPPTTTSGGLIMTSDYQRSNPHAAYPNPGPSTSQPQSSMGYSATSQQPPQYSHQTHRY
T1 sequence (P24863 whole entry partner): as the sequence (P24863 whole entry partner) above

CN(C)[C@H]1C[C@@]23CC[C@@]4(O2)C(=CC[C@]2(C)[C@@H](c5ccc6ccncc6c5)CC[C@H]24)C=C3[C@@H](O)[C@@H]1O [Cortistatin A, cortistatin A]
% growth rel. to vehicle (SK.BR-3): 22%
% growth rel. to vehicle (SK-N-F1): 30%
GI50 (UKE-1 [1]): 7 nM
kinase selectivity (kinase activity percent remaining, 294 recombinant kinases) (CDK8/19): selectively inhibits CDK8/19
% growth rel. to vehicle (MCF-7): 49%
combination index (synergy) for inhibition of proliferation (UKE-1 [2]): synergizes
% growth rel. to vehicle (T47D): 48%
GI50 (MV4;11; MV4-11): 6 nM
GI50 (MV4;11; MV4-11, 240 h): 6 nM
GI50 (HL-60): 7 nM
% growth rel. to vehicle (HCC827): 23%
% growth rel. to vehicle (MKN-45): 27%
combination index (synergy) for inhibition of proliferation (SET-2 [3]): synergizes
expression of RUNX1 target genes [4]: upregulated RUNX1 target genes
growth of MOLM-14 cells expressing drug resistant allele (CDK19 W105M): able to proliferate in the presence of cortistatin A
GI50 (SET-2 [5]; SET-2): 4 nM
GI50 (SET-2 [5]; SET-2, 240 h): 4 nM
proliferation of SET-2 cells (theoretical cell number versus days of treatment) (SET-2 [5]; dose-dependent, FIG. 4): inhibits the proliferation of SET-2 cells
